# From patent US8802866B2, “Pyridinylimidazolone derivatives for the inhibition of PI3 kinases” (Merck Patent GmbH, priority 2009, dated 2014)
# Where two headings read alike, the source gives them in different places.
# Key:
# mTOR = target: T1, mTOR (Homo sapiens, UniProt P42345); experiment: Biochemical mTOR assay (Millipore mTOR assay kit)
# T1 construct: purchased Millipore 14-770
# Protocol: The biochemical mTOR assay was carried out by the method described in the Millipore mTOR assay kit (catalogue number 14-770).
# PI3Kalpha = PI3Kalpha (Homo sapiens, UniProt P42336); experiment: Biochemical PI3Kalpha assay (neomycin SPA, lipid phosphorylation); settings: human recombinant GST-PI3K
# Method in brief: (§1)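 Recombinant PI3K incubated with lipid substrate and radioactive ATP for 120 min at room temperature with gentle stirring, then stopped with neomycin-coated PVT-SPA beads, ATP 60 mM and EDTA 6.2 mM in PBS. After 60 min bead binding and centrifugation, radioactive Ptdlns(3)P counted by scintillation.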
# [1] = system: PI3K-dependent phosphorylation of PKB at Serin 473 in PC3 cells; experiment: Cellular PI3K assay (P-S473-PKB Luminex assay in PC3 cells); format: cell-based; settings: Homo sapiens, PC-3, 0.5 h, read-out: IC50 (cell)
# Method in brief: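 PC3 cells were exposed for 30 min under serum-free conditions to 7 concentrations of compound, then lysed. Lysates were captured overnight at 4°C on anti-total-PKB Luminex beads and detected with P-S473-PKB antibody plus PE-labelled secondary.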
# [2] = target: recombinant PI3Kalpha (shortened form of the catalytic subunit) (Homo sapiens, UniProt P42336); experiment: BIACORE PI3K binding assay (SPR); settings: 25° C.
# Method in brief: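 Contact time was 180 s and dissociation 240 s, in HEPES pH 7.40 buffer with 2% DMSO. Solvent-corrected, double-referenced data were fitted to a 1:1 model with mass transport.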
# PI3Kbeta = PI3Kbeta (Homo sapiens, UniProt P42338); experiment: Biochemical PI3Kbeta assay (neomycin SPA, lipid phosphorylation); settings: human recombinant GST-PI3K
# Method in brief: as §1
# DNA-PK protein complex = DNA-PK protein complex (Homo sapiens, UniProt P78527); experiment: Biochemical DNA-PK assay (FlashPlate)
# Method in brief: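 Streptavidin-coated FlashPlate radiometric kinase assay, stopped with 200 mM EDTA, then wells washed with 0.9% NaCl and bound radioactivity counted. Blank (non-specific reaction) defined with a proprietary kinase inhibitor at 10 μM.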
# [3] = PC3 cells, 30 min, serum-free, P-S473-PKB
# T1 sequence (P42345 1362-2549 limits assumed): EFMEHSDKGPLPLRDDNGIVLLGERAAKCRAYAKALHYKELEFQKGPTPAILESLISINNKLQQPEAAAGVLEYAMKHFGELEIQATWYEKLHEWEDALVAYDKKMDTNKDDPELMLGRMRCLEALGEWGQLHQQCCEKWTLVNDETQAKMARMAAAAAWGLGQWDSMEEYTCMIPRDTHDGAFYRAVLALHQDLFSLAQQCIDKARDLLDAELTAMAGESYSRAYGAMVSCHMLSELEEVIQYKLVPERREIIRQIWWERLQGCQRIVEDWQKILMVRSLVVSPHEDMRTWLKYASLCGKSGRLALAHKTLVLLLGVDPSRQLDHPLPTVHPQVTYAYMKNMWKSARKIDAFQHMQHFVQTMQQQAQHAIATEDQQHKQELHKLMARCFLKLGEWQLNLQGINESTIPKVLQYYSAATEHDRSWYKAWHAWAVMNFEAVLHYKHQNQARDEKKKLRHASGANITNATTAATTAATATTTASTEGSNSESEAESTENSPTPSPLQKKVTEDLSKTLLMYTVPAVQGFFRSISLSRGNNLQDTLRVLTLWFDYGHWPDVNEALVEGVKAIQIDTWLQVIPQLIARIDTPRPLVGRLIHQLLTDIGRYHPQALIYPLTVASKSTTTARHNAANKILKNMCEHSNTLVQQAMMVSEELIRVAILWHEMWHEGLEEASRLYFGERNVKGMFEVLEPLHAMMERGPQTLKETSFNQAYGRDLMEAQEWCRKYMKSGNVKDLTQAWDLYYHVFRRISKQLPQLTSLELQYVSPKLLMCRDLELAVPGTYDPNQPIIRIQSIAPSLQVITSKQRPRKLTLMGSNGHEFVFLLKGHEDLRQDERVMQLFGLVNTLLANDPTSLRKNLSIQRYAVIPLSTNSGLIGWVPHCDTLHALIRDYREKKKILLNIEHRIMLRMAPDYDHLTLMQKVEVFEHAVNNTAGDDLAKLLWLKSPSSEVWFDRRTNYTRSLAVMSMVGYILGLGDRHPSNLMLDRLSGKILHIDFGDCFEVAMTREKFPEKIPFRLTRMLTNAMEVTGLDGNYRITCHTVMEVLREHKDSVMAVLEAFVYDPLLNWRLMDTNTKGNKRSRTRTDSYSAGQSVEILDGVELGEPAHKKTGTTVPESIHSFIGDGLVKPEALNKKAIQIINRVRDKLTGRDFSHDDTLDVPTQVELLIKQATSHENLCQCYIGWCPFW
# Sequence of recombinant PI3Kalpha (shortened form of the catalytic subunit) (P42336 151-1068 limits assumed): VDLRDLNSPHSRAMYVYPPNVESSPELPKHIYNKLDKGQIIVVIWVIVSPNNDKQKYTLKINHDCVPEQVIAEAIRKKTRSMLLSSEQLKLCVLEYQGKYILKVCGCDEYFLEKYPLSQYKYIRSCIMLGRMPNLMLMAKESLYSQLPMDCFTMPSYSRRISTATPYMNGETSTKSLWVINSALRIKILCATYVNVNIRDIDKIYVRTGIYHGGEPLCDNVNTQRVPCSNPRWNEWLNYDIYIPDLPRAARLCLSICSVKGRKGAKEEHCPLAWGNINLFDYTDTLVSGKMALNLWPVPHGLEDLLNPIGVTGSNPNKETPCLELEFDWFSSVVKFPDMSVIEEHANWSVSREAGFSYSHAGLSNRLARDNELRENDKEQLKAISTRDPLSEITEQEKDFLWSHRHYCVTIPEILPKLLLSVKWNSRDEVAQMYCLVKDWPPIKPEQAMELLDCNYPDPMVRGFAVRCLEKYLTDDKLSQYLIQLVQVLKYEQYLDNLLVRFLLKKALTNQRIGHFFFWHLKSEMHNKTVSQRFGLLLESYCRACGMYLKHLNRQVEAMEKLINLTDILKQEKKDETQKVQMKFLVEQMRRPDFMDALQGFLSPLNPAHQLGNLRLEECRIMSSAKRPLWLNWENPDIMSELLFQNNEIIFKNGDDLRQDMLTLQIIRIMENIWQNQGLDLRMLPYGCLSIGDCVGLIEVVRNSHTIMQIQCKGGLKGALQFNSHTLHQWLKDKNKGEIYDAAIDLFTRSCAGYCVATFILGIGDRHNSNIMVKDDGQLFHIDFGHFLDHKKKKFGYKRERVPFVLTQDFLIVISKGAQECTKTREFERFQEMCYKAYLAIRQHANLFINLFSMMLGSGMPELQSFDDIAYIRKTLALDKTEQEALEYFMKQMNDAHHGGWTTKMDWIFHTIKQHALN
# Sequence of PI3Kalpha (P42336 whole entry): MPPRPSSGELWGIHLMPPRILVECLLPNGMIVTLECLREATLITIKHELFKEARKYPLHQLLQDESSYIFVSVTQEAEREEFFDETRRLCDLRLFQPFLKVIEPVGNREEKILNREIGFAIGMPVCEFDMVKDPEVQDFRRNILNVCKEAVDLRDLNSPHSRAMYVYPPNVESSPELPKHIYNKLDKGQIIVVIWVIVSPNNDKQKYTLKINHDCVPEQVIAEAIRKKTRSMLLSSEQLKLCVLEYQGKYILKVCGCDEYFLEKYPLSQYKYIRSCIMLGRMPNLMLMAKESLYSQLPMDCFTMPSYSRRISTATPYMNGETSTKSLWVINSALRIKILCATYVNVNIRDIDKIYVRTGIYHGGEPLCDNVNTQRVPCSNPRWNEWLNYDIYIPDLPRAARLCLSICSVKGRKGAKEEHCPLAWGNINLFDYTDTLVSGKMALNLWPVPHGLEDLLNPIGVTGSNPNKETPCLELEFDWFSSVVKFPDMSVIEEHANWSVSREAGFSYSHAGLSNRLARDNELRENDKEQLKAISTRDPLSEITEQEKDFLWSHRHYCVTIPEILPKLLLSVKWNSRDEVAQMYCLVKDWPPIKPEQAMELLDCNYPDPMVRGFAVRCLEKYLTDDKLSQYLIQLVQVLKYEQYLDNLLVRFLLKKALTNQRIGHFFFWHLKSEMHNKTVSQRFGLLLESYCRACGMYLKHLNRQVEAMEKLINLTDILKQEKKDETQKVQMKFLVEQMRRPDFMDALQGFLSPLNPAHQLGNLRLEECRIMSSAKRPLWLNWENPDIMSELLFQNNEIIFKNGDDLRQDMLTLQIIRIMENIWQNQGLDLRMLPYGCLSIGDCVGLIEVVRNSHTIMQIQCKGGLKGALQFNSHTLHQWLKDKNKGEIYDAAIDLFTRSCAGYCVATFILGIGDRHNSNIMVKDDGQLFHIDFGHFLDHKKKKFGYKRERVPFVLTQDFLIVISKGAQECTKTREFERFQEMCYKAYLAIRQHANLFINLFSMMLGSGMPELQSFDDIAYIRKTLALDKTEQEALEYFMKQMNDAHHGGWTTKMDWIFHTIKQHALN
# Sequence of PI3Kalpha (P27986 whole entry partner): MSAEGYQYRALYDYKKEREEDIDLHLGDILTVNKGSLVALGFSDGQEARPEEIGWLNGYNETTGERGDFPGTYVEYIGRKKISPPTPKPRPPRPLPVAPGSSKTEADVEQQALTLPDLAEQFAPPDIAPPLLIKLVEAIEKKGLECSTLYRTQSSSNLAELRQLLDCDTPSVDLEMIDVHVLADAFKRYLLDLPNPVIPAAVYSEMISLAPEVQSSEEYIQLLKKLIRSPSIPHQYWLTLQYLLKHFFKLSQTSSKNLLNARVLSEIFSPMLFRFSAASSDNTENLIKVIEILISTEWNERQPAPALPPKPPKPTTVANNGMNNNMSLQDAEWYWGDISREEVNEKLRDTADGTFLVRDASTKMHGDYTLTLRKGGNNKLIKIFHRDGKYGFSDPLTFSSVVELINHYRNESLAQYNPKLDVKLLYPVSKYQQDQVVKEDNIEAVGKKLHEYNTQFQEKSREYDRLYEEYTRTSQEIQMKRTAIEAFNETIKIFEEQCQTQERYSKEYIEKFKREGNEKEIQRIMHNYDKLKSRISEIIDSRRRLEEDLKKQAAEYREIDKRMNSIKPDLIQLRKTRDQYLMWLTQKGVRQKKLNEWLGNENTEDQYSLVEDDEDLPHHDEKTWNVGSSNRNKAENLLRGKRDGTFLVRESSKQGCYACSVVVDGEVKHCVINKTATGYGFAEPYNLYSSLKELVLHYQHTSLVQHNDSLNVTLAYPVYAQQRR
# Sequence of PI3Kbeta (P42338 whole entry): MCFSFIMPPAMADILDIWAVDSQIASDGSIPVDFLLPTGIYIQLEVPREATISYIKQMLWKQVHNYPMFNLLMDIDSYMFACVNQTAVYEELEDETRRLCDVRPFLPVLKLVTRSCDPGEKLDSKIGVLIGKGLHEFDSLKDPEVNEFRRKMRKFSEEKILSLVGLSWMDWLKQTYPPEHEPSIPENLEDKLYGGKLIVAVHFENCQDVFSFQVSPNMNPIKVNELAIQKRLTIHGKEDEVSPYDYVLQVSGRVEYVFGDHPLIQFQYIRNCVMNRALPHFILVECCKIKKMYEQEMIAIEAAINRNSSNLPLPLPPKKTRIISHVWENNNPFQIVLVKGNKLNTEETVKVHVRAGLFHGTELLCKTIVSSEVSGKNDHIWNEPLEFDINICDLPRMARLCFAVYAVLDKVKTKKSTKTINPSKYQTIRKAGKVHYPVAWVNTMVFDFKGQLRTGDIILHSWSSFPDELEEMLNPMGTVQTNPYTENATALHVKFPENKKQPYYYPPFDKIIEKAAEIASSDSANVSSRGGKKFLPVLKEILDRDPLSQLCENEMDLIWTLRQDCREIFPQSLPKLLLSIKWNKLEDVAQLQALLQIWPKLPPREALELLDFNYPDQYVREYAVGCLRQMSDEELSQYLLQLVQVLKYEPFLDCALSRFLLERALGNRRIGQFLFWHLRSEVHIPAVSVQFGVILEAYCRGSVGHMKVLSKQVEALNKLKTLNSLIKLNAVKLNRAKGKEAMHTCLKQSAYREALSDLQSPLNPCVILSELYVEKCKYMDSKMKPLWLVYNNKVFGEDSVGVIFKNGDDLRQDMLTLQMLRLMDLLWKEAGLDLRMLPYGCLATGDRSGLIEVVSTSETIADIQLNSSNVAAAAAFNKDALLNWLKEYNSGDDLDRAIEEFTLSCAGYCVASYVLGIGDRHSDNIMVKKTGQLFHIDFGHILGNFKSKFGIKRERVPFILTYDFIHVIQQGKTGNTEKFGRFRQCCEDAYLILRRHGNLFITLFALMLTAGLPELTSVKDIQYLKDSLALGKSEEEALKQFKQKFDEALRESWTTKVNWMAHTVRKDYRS
# Sequence of PI3Kbeta (P27986 whole entry partner): as the sequence (P27986 whole entry partner) above
Compound,IC50 (mTOR) [nM],IC50 (PI3Kalpha) [nM],"IC50 [1, 3] [nM]",Kd [2] [nM],IC50 (PI3Kbeta) [nM],IC50 (DNA-PK protein complex) [nM],IC50 [1] [nM]
"Cn1cc(-c2cc(-c3cnc4[nH]c(C(F)(F)F)cc4c3)ccn2)n(-c2ccc(C(C)(C)C#N)cc2)c1=O [Example A27, 2-Methyl-2-(4-{3-methyl-2-oxo-5-[4-(2-trifluoromethyl-1H-pyrrolo[2,3-b]pyridin-5-yl)pyridin-2-yl]-2,3-dihydroimidazol-1-yl}phenyl)propionitrile]",0.1 to 100,100 to 10000,100 to 10000,100 to 10000,> 10000,0.1 to 100,–
"Cn1cc(-c2cc(-c3ccc4ncncc4c3)ccn2)n(-c2ccc(C(C)(C)C#N)cc2)c1=O [Example A91, 2-Methyl-2-{4-[3-methyl-2-oxo-5-(4-quinazolin-6-ylpyridin-2-yl)-2,3-dihydro-imidazol-1-yl]phenyl}propionitrile]",100 to 10000,100 to 10000,> 10000,100 to 10000,> 10000,0.1 to 100,–
"COc1ccc(-c2ccnc(-c3cn(C)c(=O)n3-c3ccc(N4CCNCC4)c(C(F)(F)F)c3)c2)cn1 [Example A20, 4-(6-Methoxy-[3,4′]bipyridinyl-2′-yl)-1-methyl-3-(4-piperazin-1-yl-3-trifluoro-methylphenyl)-1,3-dihydroimidazol-2-one]",100 to 10000,100 to 10000,100 to 10000,100 to 10000,100 to 10000,0.1 to 100,–
"COc1cccc(-n2c(-c3cc(-c4cnc5[nH]ccc5c4)ccn3)cn(C)c2=O)c1 [Example A73, 3-(3-Methoxyphenyl)-1-methyl-4-[4-(1H-pyrrolo[2,3-b]pyridin-5-yl)pyridin-2-yl]-1,3-dihydroimidazol-2-one]",0.1 to 100,100 to 10000,100 to 10000,0.1 to 100,100 to 10000,0.1 to 100,–
"Cn1cc(-c2cc(-c3cnc4[nH]ccc4c3)ccn2)n(-c2ccc(N3CCN(S(C)(=O)=O)CC3)c(C(F)(F)F)c2)c1=O [Example A74, 3-[4-(4-Methanesulfonylpiperazin-1-yl)-3-trifluoromethylphenyl]-1-methyl-4-[4-(1H-pyrrolo[2,3-b]pyridin-5-yl)pyridin-2-yl]-1,3-dihydroimidazol-2-one]",0.1 to 100,100 to 10000,0.1 to 100,–,100 to 10000,0.1 to 100,–
"COc1cccc(-c2ccnc(-c3cn(C)c(=O)n3-c3ccc(C(C)(C)C#N)cc3)c2)c1 [Example A3, 2-(4-{5-[4-(3-Methoxyphenyl)pyridin-2-yl]-3-methyl-2-oxo-2,3-dihydroimidazol-1-yl}phenyl)-2-methylpropionitrile]",> 10000,100 to 10000,> 10000,100 to 10000,> 10000,0.1 to 100,–
"CCN1CCN(c2ccc(-n3c(-c4cc(-c5cnc6[nH]ccc6c5)ccn4)cn(C)c3=O)cc2C(F)(F)F)CC1 [Example A77, 3-[4-(4-Ethylpiperazin-1-yl)-3-trifluoromethylphenyl]-1-methyl-4-[4-(1H-pyrrolo[2,3-b]pyridin-5-yl)pyridin-2-yl]-1,3-dihydroimidazol-2-one]",> 10000,100 to 10000,0.1 to 100,–,100 to 10000,0.1 to 100,–
"Cc1cc2cc(-c3ccnc(-c4cn(C)c(=O)n4-c4ccc(C(C)(C)C#N)cc4)c3)cnc2[nH]1 [Example A85, 2-Methyl-2-(4-{3-methyl-5-[4-(2-methyl-1H-pyrrolo[2,3-b]pyridin-5-yl)pyridin-2-yl]-2-oxo-2,3-dihydroimidazol-1-yl}phenyl)propionitrile]",100 to 10000,100 to 10000,–,0.1 to 100,100 to 10000,0.1 to 100,100 to 10000
"Cn1cc(-c2cc(-c3cnc4[nH]ncc4c3)ccn2)n(-c2ccc(N3CCNCC3)c(C(F)(F)F)c2)c1=O [Example A46, 1-Methyl-3-(4-piperazin-1-yl-3-trifluoromethylphenyl)-4-[4-(1H-pyrazolo[3,4-b]-pyridin-5-yl)pyridin-2-yl]-1,3-dihydroimidazol-2-one]",100 to 10000,0.1 to 100,100 to 10000,0.1 to 100,100 to 10000,0.1 to 100,–
"Cn1cc(-c2cc(-c3cnc4[nH]ccc4c3)ccn2)n(-c2ccc(F)c(C(F)(F)F)c2)c1=O [Example A51, 3-(4-Fluoro-3-trifluoromethylphenyl)-1-methyl-4-[4-(1H-pyrrolo[2,3-b]pyridin-5-yl)pyridin-2-yl]-1,3-dihydroimidazol-2-one]",100 to 10000,100 to 10000,100 to 10000,–,> 10000,0.1 to 100,–
"CC(C)c1cccc(-n2c(-c3cc(-c4cnc5[nH]ccc5c4)ccn3)cn(C)c2=O)c1 [Example A80, 3-(3-Isopropylphenyl)-1-methyl-4-[4-(1H-pyrrolo[2,3-b]pyridin-5-yl)pyridin-2-yl]-1,3-dihydroimidazol-2-one]",> 10000,100 to 10000,100 to 10000,–,100 to 10000,0.1 to 100,–
"Cn1cc(-c2cc(-c3ccc(=O)[nH]c3)ccn2)n(-c2ccc(C(C)(C)C#N)cc2)c1=O [Example A39, 2-{4-[5-(6-Hydroxy-[3,4′]bipyridinyl-2′-yl)-3-methyl-2-oxo-2,3-dihydroimidazol-1-yl]phenyl}-2-methylpropionitrile]",100 to 10000,–,> 10000,–,–,0.1 to 100,–
"N#Cc1cccc(-n2c(-c3cc(-c4cnc5[nH]ccc5c4)ccn3)cn(C(F)F)c2=O)c1 [Example A75, 3-{3-Difluoromethyl-2-oxo-5-[4-(1H-pyrrolo[2,3-b]pyridin-5-yl)pyridin-2-yl]-2,3-dihydroimidazol-1-yl}benzonitrile]",100 to 10000,100 to 10000,100 to 10000,–,> 10000,0.1 to 100,–
"Cn1cc(-c2cc(-c3ccc(NS(C)(=O)=O)nc3)ccn2)n(-c2ccc(N3CCNCC3)c(C(F)(F)F)c2)c1=O [Example A61, N-{2′-[1-Methyl-2-oxo-3-(4-piperazin-1-yl-3-trifluoromethylphenyl)-2,3-dihydro-1H-imidazol-4-yl]-[3,4′]bipyridinyl-6-yl}methanesulfonamide]",100 to 10000,100 to 10000,> 10000,–,> 10000,0.1 to 100,–
"Cc1cccc(-n2c(-c3cc(-c4cnc5[nH]ccc5c4)ccn3)cn(C)c2=O)c1 [Example A79, 1-Methyl-4-[4-(1H-pyrrolo[2,3-b]pyridin-5-yl)pyridin-2-yl]-3-m-tolyl-1,3-dihydro-imidazol-2-one]",100 to 10000,100 to 10000,100 to 10000,–,100 to 10000,0.1 to 100,–
"Cn1cc(-c2cc(-c3cnc4[nH]ccc4c3)ccn2)n(-c2ccccc2OC(F)(F)F)c1=O [Example A76, 1-Methyl-4-[4-(1H-pyrrolo[2,3-b]pyridin-5-yl)pyridin-2-yl]-3-(2-trifluoromethoxy-phenyl)-1,3-dihydroimidazol-2-one]",0.1 to 100,> 10000,> 10000,–,> 10000,0.1 to 100,–
